Assay results reported in patent US8178522B2, “Thiazoles” (Hoffmann-La Roche Inc., priority 2009, dated 2012).

Molecular target: T1, GABA A α5 (α5β3γ2) (Homo sapiens, UniProt P18507+P31644)
T1 construct: expressed in transfected cells; host or cells: HEK293, transiently transfected; membrane preparation
Assay: [3H]flumazenil competition binding, human GABA A α5 receptor
Conditions: human receptor α5β3γ2 transiently transfected in HEK293 cells; competition for [3H]flumazenil 0.5 nM; 1 hour at 4° C.; means of two determinations; read-out: hKi GABA A α5
Procedure: Membrane Preparation and Binding Assay
The affinity of compounds at GABA A receptor subtypes was measured by competition for [3H]flumazenil (85 Ci/mmol; Roche) binding to HEK293 cells expressing rat (stably transfected) or human (transiently transfected) receptors of compositional α1β3γ2, α2β3γ2, α3β3γ2 and α5β3γ2.
Cell pellets were suspended in Krebs-tris buffer (4.8 mM KCl, 1.2 mM CaCl2, 1.2 mM MgCl2, 120 mM NaCl, 15 mM Tris; pH 7.5; binding assay buffer), homogenized by polytron for ca. 20 sec on ice and centrifuged for 60 min at 4° C. (50000 g; Sorvall, rotor: SM24=20000 rpm). The cell pellets were re-suspended in Krebs-tris buffer and homogenized by polytron for ca. 15 sec on ice. Protein was measured (Bradford method, Bio-Rad) and aliquots of 1 mL were prepared and stored at −80° C.
Assays were incubated to equilibrium for 1 hour at 4° C. and harvested onto GF/C uni-filters (Packard) by filtration using a Packard harvester and washing with ice-cold wash buffer (50 mM Tris; pH 7.5). After drying, filter-retained radioactivity was detected by liquid scintillation counting. Ki values were calculated using Excel-Fit (Microsoft) and are the means of two determinations.

Compound	Ki
CCCCc1noc(C)c1CCc1ncc(C(=O)NC2CCOC2)s1 (stereo not drawn) [Example 60, 2-[2-(3-Butyl-5-methyl-isoxazol-4-yl)-ethyl]-thiazole-5-carboxylic acid (tetrahydro-furan-3-yl)-amide]	35.5 nM
Cc1nc(CCc2c(-c3ccc(F)cn3)noc2C)sc1C(=O)NCC(F)(F)F [Example 35, 2-{2-[3-(5-Fluoro-pyridin-2-yl)-5-methyl-isoxazol-4-yl]ethyl}-4-methyl-thiazole-5-carboxylic acid (2,2,2-trifluoro-ethyl)-amide]	6.6 nM
Cc1onc(-c2ccc(F)cn2)c1/C=C/c1ncc(C(=O)N2CCSCC2)s1 [Example 89, (2-{(E)-2-[3-(5-Fluoro-pyridin-2-yl)-5-methyl-isoxazol-4-yl]-vinyl}-thiazol-5-yl)-thiomorpholin-4-yl-methanone]	22.8 nM
Cc1onc(-c2ccc(F)cn2)c1CCc1ncc(C(=O)NCC(F)(F)F)s1 [Example 44, 2-{2-[3-(5-Fluoro-pyridin-2-yl)-5-methyl-isoxazol-4-yl]-ethyl}-thiazole-5-carboxylic acid (2,2,2-trifluoro-ethyl)-amide]	15.7 nM
CCCCc1noc(C)c1/C=C/c1nc(C)c(C(N)=O)s1 [Example 100, 2-[(E)-2-(3-Butyl-5-methyl-isoxazol-4-yl)-vinyl]-4-methyl-thiazole-5-carboxylic acid amide]	2 nM
CCNC(=O)c1cnc(CCc2c(-c3ccc(F)cn3)noc2C)s1 [Example 46, 2-{2-[3-(5-Fluoro-pyridin-2-yl)-5-methyl-isoxazol-4-yl]-ethyl}-thiazole-5-carboxylic acid ethylamide]	18.1 nM
Cc1onc(-c2ccccn2)c1CCc1ncc(C(=O)NC2CC2)s1 [Example 23, 2-[2-(5-Methyl-3-pyridin-2-yl-isoxazol-4-yl)-ethyl]-thiazole-5-carboxylic acid cyclo-propylamide]	26.1 nM
COC(=O)c1sc(CCc2c(-c3ccccn3)noc2C)nc1C [Example 8, 4-Methyl-2-[2-(5-methyl-3-pyridin-2-yl-isoxazol-4-yl)-ethyl]-thiazole-5-carboxylic acid methyl ester]	20.3 nM
Cc1nc(CCc2c(-c3ccc(F)cn3)noc2C)sc1C(=O)N1CCSCC1 [Example 37, (2-{2-[3-(5-Fluoro-pyridin-2-yl)-5-methyl-isoxazol-4-yl]-ethyl}-4-methyl-thiazol-5-yl)-thiomorpholin-4-yl-methanone]	55.9 nM
Cc1nc(CCc2c(-c3ccccn3)noc2C)sc1C(=O)N1CCSCC1 [Example 17, {4-Methyl-2-[2-(5-methyl-3-pyridin-2-yl-isoxazol-4-yl)-ethyl]-thiazol-5-yl}-thiomorpholin-4-yl-methanone]	42.8 nM
CCCCc1noc(C)c1/C=C/c1nc(C)c(C(=O)NCC2CC2)s1 [Example 116, 2-[(E)-2-(3-Butyl-5-methyl-isoxazol-4-yl)-vinyl]-4-methyl-thiazole-5-carboxylic acid cyclopropylmethyl-amide]	4.4 nM
Cc1nc(/C=C/c2conc2-c2ccc(F)cn2)sc1C(=O)NC1CC1 [Example 91, 2-{(E)-2-[3-(5-Fluoro-pyridin-2-yl)-isoxazol-4-yl]vinyl}-4-methyl-thiazole-5-carboxylic acid cyclopropylamide]	35.3 nM
CCCCc1noc(C)c1COc1ncc(C(=O)NC(C)CO)s1 (racemic) [Example 133, Rac-2-(3-Butyl-5-methyl-isoxazol-4-ylmethoxy)-thiazole-5-carboxylic acid (2-hydroxy-1-methyl-ethyl)-amide]	19.2 nM
CCCCc1noc(C)c1/C=C/c1nc(C)c(C(=O)NC2CCOC2)s1 (stereo not drawn) [Example 94, 2-[(E)-2-(3-Butyl-5-methyl-isoxazol-4-yl)-vinyl]-4-methyl-thiazole-5-carboxylic acid (tetrahydro-furan-3-yl)-amide]	1.2 nM
Cc1nc(CCc2c(-c3ccccc3)noc2C)sc1C(=O)NC1CCOC1 (stereo in doubt) [Example 2, (S)-4-Methyl-2-[2-(5-methyl-3-phenyl-isoxazol-4-yl)-ethyl]-thiazole-5-carboxylic acid (tetrahydro-furan-3-yl)-amide]	10.9 nM
CCCCc1noc(C)c1/C=C/c1nc(C)c(C(=O)N[C@@H](CC)CO)s1 [Example 106, 2-[(E)-2-(3-Butyl-5-methyl-isoxazol-4-yl)-vinyl]-4-methyl-thiazole-5-carboxylic acid ((S)-1-hydroxymethyl-propyl)-amide]	2.1 nM
Cc1nc(CCc2c(-c3ccccc3)noc2C)sc1C(=O)NCC(C)(C)O [Example 4, 4-Methyl-2-[2-(5-methyl-3-phenyl-isoxazol-4-yl)-ethyl]-thiazole-5-carboxylic acid (2-hydroxy-2-methyl-propyl)-amide]	37.8 nM

Compound	Ki
CCCCc1noc(C)c1/C=C/c1nc(C)c(C(=O)NC)s1 [Example 122, 2-[(E)-2-(3-Butyl-5-methyl-isoxazol-4-yl)-vinyl]-4-methyl-thiazole-5-carboxylic acid methylamide]	5.7 nM
Cc1nc(CCc2c(-c3ccccn3)noc2C)sc1C(=O)NC1CCOCC1 [Example 9, 4-Methyl-2-[2-(5-methyl-3-pyridin-2-yl-isoxazol-4-yl)-ethyl]-thiazole-5-carboxylic acid (tetrahydro-pyran-4-yl)-amide]	5.7 nM
Cc1onc(-c2ccccc2)c1COc1ncc(C(=O)NCCO)s1 [Example 130, 2-(5-Methyl-3-phenyl-isoxazol-4-ylmethoxy)-thiazole-5-carboxylic acid (2-hydroxy-ethyl)-amide]	5.4 nM
CCCCc1noc(C)c1CCc1nc(C)c(C(=O)NCC(C)(C)O)s1 [Example 49, 2-[2-(3-Butyl-5-methyl-isoxazol-4-yl)-ethyl]-4-methyl-thiazole-5-carboxylic acid (2-hydroxy-2-methyl-propyl)-amide]	43.3 nM
Cc1onc(-c2ccc(F)cn2)c1/C=C/c1ncc(C(=O)N2CCS(=O)(=O)CC2)s1 [Example 83, (1,1-Dioxothiomorpholin-4-yl)-(2-{(E)-2-[3-(5-fluoro-pyridin-2-yl)-5-methyl-isoxazol-4-yl]-vinyl}-thiazol-5-yl)-methanone]	27.4 nM
CCCCc1noc(C)c1CCc1nc(C)c(C(=O)NC2CCOC2)s1 (racemic) [Example 52, Rac-2-[2-(3-Butyl-5-methyl-isoxazol-4-yl)-ethyl]-4-methyl-thiazole-5-carboxylic acid (tetrahydro-furan-3-yl)-amide]	15.2 nM
Cc1onc(-c2ccc(F)cn2)c1CCc1ncc(C(=O)NC2CCOCC2)s1 [Example 40, 2-{2-[3-(5-Fluoro-pyridin-2-yl)-5-methyl-isoxazol-4-yl]-ethyl}-thiazole-5-carboxylic acid (tetrahydro-pyran-4-yl)-amide]	13.3 nM
Cc1onc(-c2ccccn2)c1CCc1ncc(C(=O)NC2CCOCC2)s1 [Example 24, 2-[2-(5-Methyl-3-pyridin-2-yl-isoxazol-4-yl)-ethyl]-thiazole-5-carboxylic acid (tetra-hydro-pyran-4-yl)-amide]	18.8 nM
CCCCc1noc(C)c1/C=C/c1nc(C)c(C(=O)N2CC3(COC3)C2)s1 [Example 123, {2-[(E)-2-(3-Butyl-5-methyl-isoxazol-4-yl)-vinyl]-4-methyl-thiazol-5-yl}-(2-oxa-6-aza-spiro[3.3]hept-6-yl)-methanone]	1.1 nM
Cc1onc(-c2ccccn2)c1CCc1ncc(C(N)=O)s1 [Example 25, 2-[2-(5-Methyl-3-pyridin-2-yl-isoxazol-4-yl)-ethyl]-thiazole-5-carboxylic acid amide]	33.6 nM
CCCCc1noc(C)c1/C=C/c1nc(C)c(C(=O)NCCO)s1 [Example 95, 2-[(E)-2-(3-Butyl-5-methyl-isoxazol-4-yl)-vinyl]-4-methyl-thiazole-5-carboxylic acid (2-hydroxy-ethyl)-amide]	2.2 nM
Cc1onc(-c2ccccc2)c1/C=C/c1ncc(C(=O)NCCO)s1 [Example 67, 2-[(E)-2-(5-Methyl-3-phenyl-isoxazol-4-yl)-vinyl]-thiazole-5-carboxylic acid (2-hydroxy-ethyl)-amide]	2.8 nM
Cc1nc(CCc2c(-c3ccccn3)noc2C)sc1C(=O)NCCO [Example 14, 4-Methyl-2-[2-(5-methyl-3-pyridin-2-yl-isoxazol-4-yl)-ethyl]-thiazole-5-carboxylic acid (2-hydroxy-ethyl)-amide]	14.1 nM
Cc1onc(-c2ccccc2)c1/C=C/c1ncc(C(=O)NC(C)CO)s1 (stereo not drawn) [Example 66, 2-[(E)-2-(5-Methyl-3-phenyl-isoxazol-4-yl)-vinyl]-thiazole-5-carboxylic acid (2-hydroxy-1-methyl-ethyl)-amide]	1.8 nM
Cc1onc(-c2ccc(F)cn2)c1/C=C/c1ncc(C(=O)NCCO)s1 [Example 85, 2-{(E)-2-[3-(5-Fluoro-pyridin-2-yl)-5-methyl-isoxazol-4-yl]-vinyl}-thiazole-5-carboxylic acid (2-hydroxy-ethyl)-amide]	5.1 nM
CCCCc1noc(C)c1/C=C/c1nc(C)c(C(=O)Nc2cnn(C)c2)s1 [Example 112, 2-[(E)-2-(3-Butyl-5-methyl-isoxazol-4-yl)-vinyl]-4-methyl-thiazole-5-carboxylic acid (1-methyl-1-pyrazol-4-yl)-amide]	1.3 nM
